Results as given in patent US5807880A, “Azole derivative and pharmaceutical composition thereof” (Yamanouchi Pharmaceutical Co., Ltd., priority 1993, dated 1998).
Counter-ions that a name gives are not always drawn.

Assays:
[1] = target: T1, rat steroid 17-20 lyase (Rattus norvegicus, UniProt P11715); test: Measurement of rat steroid 17-20 lyase inhibiting activity (rat testicular microsomes); assay type: biochemical, rat (male Wistar); settings: 1 μM [1,2-3H]-17α-hydroxyprogesterone, NADPH, pH 7.4, 37° C., 60 minutes, read-out: Concentration of drug to inhibit 50% of steroid 17-20 lyase activity (IC50)
T1 construct: A testis was excised from a ten-week-old male Wistar rat, homogenized and then centrifuged to obtain microsomes; from tissue; host or cells: testicular microsomes of ten-week-old male Wistar rats
T1 sequence (P11715 1-507): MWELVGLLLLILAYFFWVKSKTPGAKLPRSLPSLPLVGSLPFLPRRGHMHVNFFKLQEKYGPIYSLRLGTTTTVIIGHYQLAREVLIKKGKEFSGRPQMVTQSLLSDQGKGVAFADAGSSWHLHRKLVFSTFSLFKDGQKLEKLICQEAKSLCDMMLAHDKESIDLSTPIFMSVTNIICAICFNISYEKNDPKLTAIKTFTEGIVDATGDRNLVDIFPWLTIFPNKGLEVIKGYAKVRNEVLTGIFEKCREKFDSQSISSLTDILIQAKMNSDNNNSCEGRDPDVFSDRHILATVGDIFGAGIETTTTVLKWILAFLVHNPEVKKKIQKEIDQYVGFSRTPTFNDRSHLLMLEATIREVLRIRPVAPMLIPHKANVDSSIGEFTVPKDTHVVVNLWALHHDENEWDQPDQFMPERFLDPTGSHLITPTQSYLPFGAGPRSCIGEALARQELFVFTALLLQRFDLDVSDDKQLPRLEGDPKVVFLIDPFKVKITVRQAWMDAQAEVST
Procedure: (1) Measurement of rat steroid 17-20 lyase inhibiting activity
Carried out in accordance with the procedure described in J. Steroid Biochem., Vol.33, No.6, 1191-1195 (1989).
A testis was excised from a ten-week-old male Wistar rat, homogenized and then centrifuged to obtain microsomes. A 50 μg portion of the microsomal protein, 1 μM of [1,2-^3 H]-17α-hydroxyprogesterone (5.55×10^5 dpm) and a test compound were dissolved in 100 μl of 50 mM phosphate buffer (pH 7.4), and the solution was mixed with NADPH solution and incubated at 37° C. for 60 minutes. This was mixed with 400 μl of a mixed solvent of methanol and tetrahydrofuran (2:3) and subjected to centrifugation, and radioactivities of the substrate and products (androstenedione and testosterone) in the resulting supernatant fluid were measured using a high performance liquid chromatography (HPLC) equipped with a radioactive isotope detector to examine activity of the test compound to inhibit steroid 17-20 lyase.
The steroid 17-20 lyase inhibiting activity in rat testicular microsomes was calculated as IC50 value by the method described in the above test method (1), with the results shown in Table 1.

[2] = system: testosterone synthesis; test: Measurement of in vivo rat testosterone synthesis inhibiting activity (LH-RH stimulated); settings: 1 mg/kg, oral, fasted male Wistar rats; LH-RH 60 ng/rat i.m. 1 h after drug, blood 1 h thereafter; serum testosterone
Procedure: (2) Measurement of in vivo rat testosterone synthesis inhibiting activity
Carried out in accordance with the procedure described in J. Steroid Biochem., Vol.32, No.6, 781-788 (1989).
Each test drug was orally administered to ten-week-old male Wistar rats under fasting. One hour after the drug administration, LH-RH (60 ng/rat) was administered by intramuscular injection to accelerate testosterone synthesis. One hour thereafter, blood was collected by decapitation, and concentration of testosterone in the thus obtained serum was measured by a radioactive isotope assay to calculate testosterone synthesis inhibiting activity.
The in vivo activity to inhibit synthesis of testosterone in rats measured by the above test method (2) was expressed as a testosterone synthesis inhibition ratio (%) to the control group when each test compound or a control compound was administered in a dose of 1 or 10 mg/kg (Table 2).

| Structure (SMILES) | IC50 [1] [nM] | Testosterone synthesis inhibition ratio (to the control group) [2] [%] |
| --- | --- | --- |
| CC(c1ccc2c(c1)Nc1ccccc1S2)n1ccnc1 (stereo not shown) [Example 10, 2-[1-(1H-Imidazo1-1-yl)ethyl]phenothiazine monooxalate] | 6.9 | – |
| c1ccc2c(c1)Cc1cc(Cn3ccnc3)ccc1-2 [Example 7, 1-[(9H-Fluoren-2-yl)methyl]-1H-imidazole] | – | 78.4 |

Further compounds by falling IC50 [1], results first:

| IC50 [1] [nM] | Structure (SMILES) | Testosterone synthesis inhibition ratio (to the control group) [2] [%] |
| --- | --- | --- |
| 5.7 | CC(c1ccc2c(c1)sc1ccccc12)n1ccnc1 (stereo not shown) [Example 8, 1-[1-(Dibenzothiophen-3-yl)ethyl]-1H-imidazole] | 73.0 |
| 5 | CC(C)(c1ccc2c(c1)Cc1ccccc1-2)n1ccnc1 [Example 4, 1-[1-(9H-fluoren-2-yl)-1-methylethyl]-1H-imidazole] | – |
| 4 | CC(c1ccc2c(c1)Cc1ccccc1-2)n1ccnc1 (stereo not shown) [Example 2, 1-[1-(9H-fluoren-2-yl)ethyl]-1H-imidazole hydrochloride] | 86.3 |
